# Calls of active or inactive are those of the source. No cut-off for these calls is given here.
# Tests used:
# PC-3 [1] = assay: Cytotoxicity against human PC3 cells after 24 hrs by MTT assay; format: functional, cell-based; details: PC-3, 24 h
# K562 [2] = assay: Cytotoxicity against human K562 cells assessed as cell viability at 10 uM after 24 hrs by MTT assay; format: functional; details: K562, 24 h, read-out: Activity
# PC-3 [3] = assay: Induction of apoptosis in human PC3 cells assessed as late apoptotic cells at 10 uM after 48 hrs by annexinV/propidium iodide staining-based FITC analysis relative to control; format: functional
# PC-3 [4] = assay: Induction of apoptosis in human PC3 cells assessed as late apoptotic cells at 20 uM after 48 hrs by annexinV/propidium iodide staining-based FITC analysis relative to control; format: functional
# PC-3 [5] = assay: Induction of apoptosis in human PC3 cells assessed as necrotic cells at 20 uM after 48 hrs by annexinV/propidium iodide staining-based FITC analysis relative to control; format: functional
# DU-145 [6] = assay: Induction of apoptosis in human DU145 cells assessed as early apoptotic cells at 10 uM after 48 hrs by annexinV/propidium iodide staining-based FITC analysis (reference value: 2.34%); format: functional
# DU-145 [7] = assay: Induction of apoptosis in human DU145 cells assessed as necrotic cells at 20 uM after 48 hrs by annexinV/propidium iodide staining-based FITC analysis (reference value: 0.35%); format: functional
# MCF7 [8] = assay: Induction of apoptosis in human MCF7 cells assessed as late apoptotic cells at 5 uM after 48 hrs by annexinV/propidium iodide staining-based FITC analysis (reference value: 3.57%); format: functional
# MCF7 [9] = assay: Induction of apoptosis in human MCF7 cells assessed as necrotic cells at 20 uM after 48 hrs by annexinV/propidium iodide staining-based FITC analysis (reference value: 8.28%); format: functional
# K562 [10] = assay: Induction of apoptosis in human K562 cells assessed as necrotic cells at 1 uM after 48 hrs by annexinV/propidium iodide staining-based FITC analysis (reference value: 1.19%); format: functional
# K562 [11] = assay: Induction of apoptosis in human K562 cells assessed as late apoptotic cells at 5 uM after 48 hrs by annexinV/propidium iodide staining-based FITC analysis (reference value: 2.55%); format: functional
# K562 [12] = assay: Induction of apoptosis in human K562 cells assessed as necrotic cells at 5 uM after 48 hrs by annexinV/propidium iodide staining-based FITC analysis (reference value: 1.19%); format: functional
# K562 [13] = assay: Induction of apoptosis in human K562 cells assessed as early apoptotic cells at 10 uM after 48 hrs by annexinV/propidium iodide staining-based FITC analysis (reference value: 2.08%); format: functional
# K562 [14] = assay: Induction of apoptosis in human K562 cells assessed as necrotic cells at 10 uM after 48 hrs by annexinV/propidium iodide staining-based FITC analysis (reference value: 1.19%); format: functional
# PC-3 [15] = assay: Cell cycle arrest in human PC3 cells assessed as accumulation at G0/G1 phase at 5 uM after 48 hrs by propidium iodide staining-based flow cytometric analysis relative to control; format: functional
# PC-3 [16] = assay: Cell cycle arrest in human PC3 cells assessed as accumulation at S phase at 5 uM after 48 hrs by propidium iodide staining-based flow cytometric analysis relative to control; format: functional
# PC-3 [17] = assay: Cell cycle arrest in human PC3 cells assessed as accumulation at G2/M phase at 5 uM after 48 hrs by propidium iodide staining-based flow cytometric analysis relative to control; format: functional
# PC-3 [18] = assay: Cell cycle arrest in human PC3 cells assessed as accumulation at G0/G1 phase at 10 uM after 48 hrs by propidium iodide staining-based flow cytometric analysis relative to control; format: functional
# PC-3 [19] = assay: Cell cycle arrest in human PC3 cells assessed as accumulation at G2/M phase at 10 uM after 48 hrs by propidium iodide staining-based flow cytometric analysis relative to control; format: functional
# PC-3 [20] = assay: Cell cycle arrest in human PC3 cells assessed as accumulation at G2/M phase at 20 uM after 48 hrs by propidium iodide staining-based flow cytometric analysis relative to control; format: functional
# DU-145 [21] = assay: Induction of apoptosis in human DU145 cells assessed as accumulation at G0/G1 phase at 10 uM after 48 hrs by propidium iodide staining-based flow cytometric analysis (reference value: 72.11%); format: functional
# DU-145 [22] = assay: Induction of apoptosis in human DU145 cells assessed as accumulation at S phase at 10 uM after 48 hrs by propidium iodide staining-based flow cytometric analysis (reference value: 11.48%); format: functional
# DU-145 [23] = assay: Induction of apoptosis in human DU145 cells assessed as accumulation at G0/G1 phase at 20 uM after 48 hrs by propidium iodide staining-based flow cytometric analysis (reference value: 72.11%); format: functional
# DU-145 [24] = assay: Induction of apoptosis in human DU145 cells assessed as accumulation at S phase at 20 uM after 48 hrs by propidium iodide staining-based flow cytometric analysis (reference value: 11.48%); format: functional
# DU-145 [25] = assay: Induction of apoptosis in human DU145 cells assessed as accumulation at G2/M phase at 20 uM after 48 hrs by propidium iodide staining-based flow cytometric analysis (reference value: 16.14%); format: functional
# DU-145 [26] = assay: Induction of apoptosis in human DU145 cells assessed as accumulation at S phase at 40 uM after 48 hrs by propidium iodide staining-based flow cytometric analysis (reference value: 11.48%); format: functional
# MCF7 [27] = assay: Induction of apoptosis in human MCF7 cells assessed as accumulation at G0/G1 phase at 5 uM after 48 hrs by propidium iodide staining-based flow cytometric analysis (reference value: 67.46%); format: functional
# MCF7 [28] = assay: Induction of apoptosis in human MCF7 cells assessed as accumulation at S phase at 5 uM after 48 hrs by propidium iodide staining-based flow cytometric analysis (reference value: 22.99%); format: functional
# MCF7 [29] = assay: Induction of apoptosis in human MCF7 cells assessed as accumulation at G0/G1 phase at 20 uM after 48 hrs by propidium iodide staining-based flow cytometric analysis (reference value: 67.46%); format: functional
# K562 [30] = assay: Induction of apoptosis in human K562 cells assessed as accumulation at S phase at 1 uM after 48 hrs by propidium iodide staining-based flow cytometric analysis (reference value: 45.67%); format: functional
# K562 [31] = assay: Induction of apoptosis in human K562 cells assessed as accumulation at S phase at 5 uM after 48 hrs by propidium iodide staining-based flow cytometric analysis (reference value: 45.67%); format: functional
# K562 [32] = assay: Induction of apoptosis in human K562 cells assessed as accumulation at G0/G1 phase at 10 uM after 48 hrs by propidium iodide staining-based flow cytometric analysis (reference value: 38.61%); format: functional
# K562 [33] = assay: Induction of apoptosis in human K562 cells assessed as accumulation at G2/M phase at 10 uM after 48 hrs by propidium iodide staining-based flow cytometric analysis (reference value: 15.72%); format: functional
# PC-3 [34] = assay: Decrease in Bcl-2 protein level in human PC3 cells at 5 uM after 48 hrs by Western blot analysis; format: functional, cell-based
# PC-3 [35] = assay: Induction of apoptosis in human PC3 cells assessed as cleavage of caspase 3 at 5 to 20 uM after 48 hrs by Western blot analysis; format: functional, cell-based
# PC-3 [36] = assay: Induction of apoptosis in human PC3 cells assessed as cleavage of caspase 9 at 5 to 20 uM after 48 hrs by Western blot analysis; format: functional, cell-based
smiles,measurement,setting,value
CC[C@H](/C=C/[C@@H](C)[C@H]1CC[C@H]2[C@H]3[C@H]([C@H](O)C[C@]12C)[C@@]1(C)CC[C@H](O)CC1=C[C@H]3O)C(C)C,IC50,PC-3 [1],10.9 µM
same,viability at 10 µM,K562 [2],32%
same,Activity,PC-3 [3],37.79%
same,Activity,PC-3 [4],42.21%
same,Activity,PC-3 [5],2.79%
same,Activity,DU-145 [6],4.02%
same,Activity,DU-145 [7],2.38%
same,Activity,MCF7 [8],3.47%
same,Activity,MCF7 [9],4.8%
same,Activity,K562 [10],0.5%
same,Activity,K562 [11],1.91%
same,Activity,K562 [12],1.59%
same,Activity,K562 [13],6.1%
same,Activity,K562 [14],0.78%
same,Activity,PC-3 [15],59%
same,Activity,PC-3 [16],26.9%
same,Activity,PC-3 [17],14.11%
same,Activity,PC-3 [18],52.69%
same,Activity,PC-3 [19],24.03%
same,Activity,PC-3 [20],29.84%
same,Activity,DU-145 [21],65.66%
same,Activity,DU-145 [22],12.94%
same,Activity,DU-145 [23],67.88%
same,Activity,DU-145 [24],11.38%
same,Activity,DU-145 [25],20.74%
same,Activity,DU-145 [26],17.68%
same,Activity,MCF7 [27],72.36%
same,Activity,MCF7 [28],19.09%
same,Activity,MCF7 [29],55.93%
same,Activity,K562 [30],45.77%
same,Activity,K562 [31],45.5%
same,Activity,K562 [32],39.64%
same,Activity,K562 [33],12.11%
same,inhibition,PC-3 [34],Active
same,Activity,PC-3 [35],Active
same,Activity,PC-3 [36],Active

# — ChEMBL document CHEMBL2062415, “Steroids from Commiphora mukul display antiproliferative effect against human prostate cancer PC3 cells via induction of apoptosis” (Bioorg Med Chem Lett, 2012)
